This passage reports Ratio, Activity and EC50 results from ChEMBL document CHEMBL1773053, “Immunosuppressive but non-LasR-inducing analogues of the Pseudomonas aeruginosa quorum-sensing molecule N-(3-oxododecanoyl)-l-homoserine lactone” (J Med Chem, 2011).

Molecules are shown by their SMILES.

For data set [1], the target named is T1, Transcriptional activator protein LasR (Pseudomonas aeruginosa (strain ATCC 15692 / PAO1 / 1C / PRS 101 / LMG12228)) (UniProt P25084).
T1 sequence (whole entry): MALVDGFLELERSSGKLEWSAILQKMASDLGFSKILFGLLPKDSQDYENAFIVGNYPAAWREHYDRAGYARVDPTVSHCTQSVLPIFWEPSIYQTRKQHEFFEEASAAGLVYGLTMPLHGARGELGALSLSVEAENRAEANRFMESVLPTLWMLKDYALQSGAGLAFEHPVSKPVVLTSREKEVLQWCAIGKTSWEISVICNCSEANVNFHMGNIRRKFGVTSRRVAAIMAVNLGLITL
The data set can be described thus: Induction of lasR-mediated quorum sensing in Pseudomonas aeruginosa PAKR02 harboring lasB::luxCDABE gene assessed as lasR-induction ratio at 10^-4 M after 24 hrs by bioluminescence assay relative to control.

Data set [2] addresses T1, Transcriptional activator protein LasR (Pseudomonas aeruginosa (strain ATCC 15692 / PAO1 / 1C / PRS 101 / LMG12228)). The data set is described as follows: Inhibition of OdDHL-induced LasR activation in Pseudomonas aeruginosa PAKR02 harboring lasB::luxCDABE gene assessed as remaining Las activity at 10^-4 M after 24 hrs by bioluminescence assay.
In data set [3] the test system is Jurkat. The data set is described as follows: Cytotoxicity against human Jurkat E6-1 cells assessed as cell viability after 24 hrs by trypan blue exclusion assay. The data set is classed as cell-based. As to conditions: for EC50: Homo sapiens, Jurkat; for Activity: human, jurkat.
The nature of data set [4]: Immunosuppressive activity in mouse concanavalin A-stimulated peripheral blood leukocyte assessed as inhibition of leukocyte proliferation by [3H]thymidine incorporation assay. The data set is classed as functional.

For orientation: EC50 means the midpoint of the concentration-response curve. `CCCCCCCCNC(=O)CC(=O)Nc1ccccc1O`: the Ratio in data set [1] came to 0.79. The Activity in data set [2] was 29%. Besides, the EC50 in data set [3] was more than 1000 µM; in data set [4] it was 22 µM.
For `CCCCCCCCN(C)C(=O)CC(=O)N[C@H]1CCOC1=O`, in that order: 0.91, 60%, more than 1000 µM and 22 µM.
In the case of `CCCCCCCCCC(=O)CC(=O)N[C@H]1CCC(=O)NC1=O`, the Ratio in data set [1] turned out to be 1.03. Moreover, the Activity in data set [2] is 71%; in data set [3], “Non-toxic”. Moreover, the EC50 in data set [4] was found to be 77 µM.
Regarding `CCCCCCCCCN(N)CC(=O)N[C@H]1CCOC1=O`, the Ratio in data set [1] was found to be 1.03. For the same compound, the Activity in data set [2] is 55%. Besides, the figures for the concentration for a half-maximal effect (EC50) in data set [3] and in data set [4] were 410 µM and 8.9 µM, respectively.
In the case of `CCCCCCCCNC(=O)CC(=O)Nc1cccc(C(N)=O)c1`, the Ratio in data set [1] was found to be 0.81. Also, the Activity in data set [2] was found to be 59%. Moreover, the EC50 in data set [3] came to 700 µM; in data set [4] it was 15 µM.
Turning to `CCCCCCCCCNC(=O)CC(=O)N[C@H]1CCOC1=O`, the Ratio in data set [1] is 1.01. The Activity in data set [2] was found to be 3.4%. The EC50 in data set [3] worked out at 530 µM; in data set [4], 23 µM.
Turning to `CCCCCCCCN(CCC)C(=O)CC(=O)N[C@H]1CCOC1=O`, the Ratio in data set [1] turned out to be 0.99. For the same compound, the Activity in data set [2] is 101%. For the same compound, the EC50 in data set [3] is 200 µM; in data set [4], 28 µM.
For `CCCCCCCCNC(=O)CC(=O)N[C@@H]1CCC[C@@H]1O`, in that order: 0.96, 55%, 400 µM and 43 µM.
Consider `CCCCOCCCNC(=O)CC(=O)N[C@@H]1CCC[C@@H]1O`, for which the Ratio in data set [1] is 0.94. Also, the Activity in data set [2] came out at 111%. In addition, the half-maximal effective concentration (EC50) in data set [3] is more than 1000 µM; in data set [4] it was 160 µM.
For `CCCCCCCCC[S+]([O-])CC(=O)N[C@H]1CCOC1=O` (some centres undefined), the EC50 in data set [3] amounted to 720 µM; in data set [4] it was 27 µM.
Take `CCCCCCCCNC(=O)CC(=O)N[C@@H]1CCCC[C@@H]1O`: the Ratio in data set [1] was found to be 0.92. Further, in data set [2], the Activity was found to be 45%. In addition, the EC50 in data set [3] amounted to 400 µM; in data set [4], 32 µM.
Regarding `CCCCCCCCNC(=O)CS(=O)(=O)N[C@H]1CCOC1=O`, the Ratio in data set [1] came to 1.04. The Activity in data set [2] came out at 86%. The figures for the EC50 in data set [3] and in data set [4] were 220 µM and 9.1 µM, respectively.
`CCCCCCCCNC(=O)CC(=O)Nc1ccc2[nH]ncc2c1`: the Ratio in data set [1] came to 1.1. In addition, the Activity in data set [2] is 62%. The results for the EC50 in data set [3] and in data set [4] were more than 1000 µM and 55 µM, respectively.
As for `CCCCCCCCCC(=O)CC(=O)N[C@H]1CC(=O)NC1=O`, in data set [1], the Ratio worked out at 1.04. The Activity in data set [2] is 82%; in data set [3] it was “Non-toxic”. Moreover, in data set [4], the EC50 was more than 1000 µM.
As for `CCCCCCCCNC(=O)CC(=O)NC1CCCCCC1`, the Ratio in data set [1] came out at 0.9. For the same compound, the Activity in data set [2] is 19%. Further, the EC50 in data set [3] came out at 78 µM; in data set [4] it was 14 µM.
`CCCCCCCCNC(=O)CC(=O)Nc1ccccn1`: in data set [1], the Ratio came out at 0.91. Besides, in data set [2], the Activity is 41%. Also, the EC50 in data set [3] was more than 1000 µM; in data set [4] it was 18 µM.
On to `CCCCCCCCCC(=O)CC(=O)Nc1nccs1`, for which, in data set [1], the Ratio was found to be 0.87. The Activity in data set [2] is 51%. Also, the EC50 was found to be 800 µM in data set [3] and 25 µM in data set [4].
Turning to `CCCCCCCCNC(=O)CC(=O)Nc1ccccc1C(=O)N(C)C`, the Ratio in data set [1] was determined as 0.91. Also, in data set [2], the Activity turned out to be 37%. In addition, the EC50 in data set [3] turned out to be 160 µM; in data set [4], 22 µM.
The matching figures for `CCCCCCCCCCCNC(=O)CC(=O)N[C@H]1CCOC1=O`: 0.72, 14%, 140 µM and 12 µM.
The matching figures for `CCCCCCCCNC(=O)CC(=O)N[C@H]1CCOC1=O`: 1.06, 20%, 200 µM and 35 µM.
The matching figures for `CCOCCOCCNC(=O)CC(=O)N[C@@H]1CCC[C@@H]1O`: 1.03, 89%, 700 µM and 192 µM.
On to `CCCCCCCCN(CCO)C(=O)CC(=O)N[C@H]1CCOC1=O`, for which the Ratio in data set [1] was 1.01. In addition, the Activity in data set [2] turned out to be 16%. Besides, the EC50 in data set [3] is 300 µM; in data set [4], 41 µM.
In the case of `CCCCCCCCCSCC(=O)N[C@H]1CCOC1=O`, in data set [1], the Ratio was determined as 0.9. Further, in data set [2], the Activity turned out to be 51%. The EC50 in data set [3] and in data set [4] was more than 1000 µM throughout.
As to `CCCCCCCCNC(=O)C(F)C(=O)N[C@H]1CCOC1=O` (some centres undefined), the Ratio in data set [1] is 0.91. For the same compound, the Activity in data set [2] was 57%. In addition, the EC50 is 800 µM in data set [3] and 26 µM in data set [4].
As to `CCCCCCCCCN(O)CC(=O)N[C@H]1CCOC1=O`, the Ratio in data set [1] amounted to 0.99. The Activity in data set [2] is 69%. In addition, the EC50 in data set [3] was found to be 400 µM; in data set [4], 13 µM.
For the compound `CCCCCCCCCCC[S+]([O-])CC(=O)N[C@H]1CCOC1=O` (some centres undefined), the Ratio in data set [1] was 0.77. Also, the Activity in data set [2] was 63%. The EC50 in data set [3] is 45 µM; in data set [4] it was 8.2 µM.
As to `CCOCCOCCNC(=O)CC(=O)N[C@H]1CCOC1=O`, in data set [1], the Ratio stood at 1.02. In data set [2], the Activity is 61%. Also, the EC50 in data set [3] and in data set [4] was more than 1000 µM each time.
As to `CCCCCCCCNC(=O)CC(=O)Nc1ccccc1C(N)=O`, the Ratio in data set [1] is 0.8. The Activity in data set [2] is 23%. For the same compound, the EC50 was found to be 120 µM in data set [3] and 25 µM in data set [4].
On to `CCCCOCCCNC(=O)CC(=O)N[C@H]1CCOC1=O`, for which the Ratio in data set [1] is 0.97. The Activity in data set [2] came to 108%. The EC50 is more than 1000 µM in data set [3] and 101 µM in data set [4].
In the case of `CCCCCCCCNS(=O)(=O)CC(=O)N[C@H]1CCOC1=O`, the Ratio in data set [1] amounted to 1.02. Besides, the Activity in data set [2] was 101%. Besides, the EC50 is 900 µM in data set [3] and 13 µM in data set [4].
For `CCCCCCCCC/C(O)=C1/C(=O)N[C@@H](CCO)C1=O`, in that order: 0.96, 21%, 52 µM and 29 µM.
As to `CCCCCCCCCC(=O)CC(=O)N[C@H]1CCOC1=O`, the Ratio in data set [1] is 12.3. For the same compound, the EC50 is 250 µM in data set [3] and 21 µM in data set [4].
Turning to `CCCCCCCCCC(CC(=O)N[C@H]1CCOC1=O)OC(C)=O` (mixture of isomers), the Ratio in data set [1] came to 1.13. The Activity in data set [2] was determined as 70%. In addition, the EC50 is 120 µM in data set [3] and 5.2 µM in data set [4].
Consider `CCCCCCCCNC(=O)CC(=O)Nc1nccs1`, for which the Ratio in data set [1] is 0.9. Also, the Activity in data set [2] stood at 64%. Further, the 50% effective concentration (EC50) in data set [3] stood at 600 µM; in data set [4] it was 27 µM.
For the compound `CCCCCCCCCS(=O)(=O)CC(=O)N[C@H]1CCOC1=O`, the Ratio in data set [1] stood at 0.92. Besides, the Activity in data set [2] is 72%. For the same compound, the EC50 in data set [3] was 200 µM; in data set [4], 31 µM.
As for `CCCCCCCCCN(CC(=O)N[C@H]1CCOC1=O)OCc1ccccc1`, the EC50 in data set [3] was 63 µM; in data set [4], 17 µM.
For the compound `CCCCCCCCCCCS(=O)(=O)CC(=O)N[C@H]1CCOC1=O`, the Ratio in data set [1] was found to be 0.75. Also, in data set [2], the Activity stood at 76%. Also, the figures for the EC50 in data set [3] and in data set [4] were 170 µM and 8.3 µM, respectively.
Turning to `CCCCCCCCNC(=O)CC(=O)Nc1cc(Cl)ccc1O`, the Ratio in data set [1] stood at 0.62. Besides, the Activity in data set [2] turned out to be 66%. Moreover, the 50% effective concentration (EC50) in data set [3] is more than 1000 µM; in data set [4], 9.3 µM.
For the compound `CCCCCCCCOC(=O)CC(=O)N[C@H]1CCOC1=O`, the Ratio in data set [1] was 1.18. The Activity in data set [2] worked out at 46%. Further, the figures for the EC50 in data set [3] and in data set [4] were 500 µM and 37 µM, respectively.
On to `CCCCCCCCNC(=O)C(F)(F)C(=O)N[C@H]1CCOC1=O`, for which the Activity in data set [2] was 6%. The 50% effective concentration (EC50) is more than 1000 µM in data set [3] and 97 µM in data set [4].
